Article PMC6114901, “An automated screening method for detecting compounds with goitrogenic activity using transgenic zebrafish embryos” (PLoS ONE, 2018)

Key:
[1] = in vivo; conditions: zebrafish, in vivo
[2] = system: zebrafish embryos; assay: in vivo; conditions: for LC10: S2 Fig, unit not given, in µM; for Slope: mortality concentration-response curve
[3] = ref chemspider (http://www.chemspider.com); cited from earlier work
[4] = 72 hpf, 77.18 µmol/L, replicate 2, 11 embryos
[5] = 72 hpf, 115.76 µmol/L, replicate 2, 9 embryos
[6] = 72 hpf, 173.64 µmol/L, replicate 2, 8 embryos
[7] = 72 hpf, 260.47 µmol/L, replicate 2, 10 embryos
[8] = 72 hpf, 390.70 µmol/L, replicate 2, 10 embryos
[9] = 120 hpf, 25 µmol/L, replicate 1, 25 embryos
[10] = 120 hpf, 50 µmol/L, replicate 1, 25 embryos
[11] = 120 hpf, 77.18 µmol/L, replicate 2, 11 embryos
[12] = 120 hpf, 100 µmol/L, replicate 1, 25 embryos
[13] = 120 hpf, 115.76 µmol/L, replicate 2, 9 embryos
[14] = 120 hpf, 173.64 µmol/L, replicate 2, 9 embryos
[15] = 120 hpf, 200 µmol/L, replicate 1, 25 embryos
[16] = 120 hpf, 260.47 µmol/L, replicate 2, 10 embryos
[17] = 120 hpf, 390.70 µmol/L, replicate 2, 10 embryos
[18] = 120 hpf, 400 µmol/L, replicate 1, 25 embryos
[19] = sheet DCA 96 hpf (head prints 72 hpf), 77.18 µmol/L, replicate 2, 10 embryos
[20] = sheet DCA 96 hpf (head prints 72 hpf), 115.76 µmol/L, replicate 2, 9 embryos
[21] = sheet DCA 96 hpf (head prints 72 hpf), 173.64 µmol/L, replicate 2, 8 embryos
[22] = sheet DCA 96 hpf (head prints 72 hpf), 260.47 µmol/L, replicate 2, 10 embryos
[23] = sheet DCA 96 hpf (head prints 72 hpf), 390.70 µmol/L, replicate 2, 10 embryos

For `Nc1ccc(Cl)c(Cl)c1` [3,4-DCA, 3,4-dichloroaniline], the LC50 ([1]; LC50 (48–120 hpf), mortality, embryos exposed 48–120 hpf) was 29.4 µM, the LC50 ([1]; LC50, mortality after 48 h of exposure, S2 Fig, unit inferred) was 319 µM and the LC50 ([1]; LC50, mortality after 72 h of exposure, S2 Fig, unit inferred) was 59.4 µM. The “No Surviving” value [2, 4] was 11, the No hatched [2, 4] was 9 and the “Sublethal effects Total Sublethal” value [2, 4] was 9. The Sublethal effects tip [2, 4] was 9, the “No Surviving” value [2, 5] was 9 and the No hatched [2, 5] was 7. For the same compound, the “Sublethal effects Total Sublethal” value [2, 5] was 7, the Sublethal effects mch [2, 5] was 4 and the Sublethal effects tip [2, 5] was 7. The “No Surviving” value [2, 6] was 8, the No hatched [2, 6] was 7 and the “Sublethal effects Total Sublethal” value [2, 6] was 7. For the same compound, the Sublethal effects mch [2, 6] was 4, the Sublethal effects tip [2, 6] was 7 and the “No Surviving” value [2, 7] was 10. For the same compound, the No hatched [2, 7] was 4, the “Sublethal effects EdY / EdP” value [2, 7] was 1 and the “Sublethal effects Total Sublethal” value [2, 7] was 4. For the same compound, the Sublethal effects mch [2, 7] was 2, the Sublethal effects tip [2, 7] was 4 and the “No Surviving” value [2, 8] was 10. For the same compound, the No hatched [2, 8] was 3, the “Sublethal effects EdY / EdP” value [2, 8] was 10 and the “Sublethal effects Total Sublethal” value [2, 8] was 10. It also gave a Sublethal effects mch [2, 8] of 3, a Sublethal effects tip [2, 8] of 3 and a Lethal effects k/f [2, 9] of 3. For the same compound, the “No Surviving” value [2, 9] was 22, the Lethal effects k/f [2, 10] was 21 and the “No Surviving” value [2, 10] was 4. For the same compound, the “No Surviving” value [2, 11] was 11, the No hatched [2, 11] was 8 and the “Sublethal effects EdY / EdP” value [2, 11] was 8. For the same compound, the “Sublethal effects Total Sublethal” value [2, 11] was 8, the Sublethal effects mch [2, 11] was 4 and the Sublethal effects nobc [2, 11] was 8. For the same compound, the Sublethal effects nomov [2, 11] was 8, the Sublethal effects tip [2, 11] was 8 and the Lethal effects k/f [2, 12] was 25. For the same compound, the “No Surviving” value [2, 12] was 0, the Lethal effects k/f [2, 13] was 6 and the “No Surviving” value [2, 13] was 3. The No hatched [2, 13] was 8, the “Sublethal effects EdY / EdP” value [2, 13] was 2 and the Sublethal effects mch [2, 13] was 1. The Sublethal effects nobc [2, 13] was 2, the Sublethal effects nomov [2, 13] was 2 and the Sublethal effects tip [2, 13] was 2. The Lethal effects k/f [2, 14] was 3, the Lethal effects nohb [2, 14] was 3 and the “No Surviving” value [2, 14] was 3. For the same compound, the No hatched [2, 14] was 9, the “Sublethal effects EdY / EdP” value [2, 14] was 3 and the “Sublethal effects Ydef” value [2, 14] was 1. It also gave a Sublethal effects mch [2, 14] of 1, a Sublethal effects nobc [2, 14] of 3 and a Sublethal effects nomov [2, 14] of 3. For the same compound, the Sublethal effects tip [2, 14] was 3, the Lethal effects k/f [2, 15] was 25 and the “No Surviving” value [2, 15] was 0. For the same compound, the Lethal effects k/f [2, 16] was 5, the Lethal effects nohb [2, 16] was 5 and the “No Surviving” value [2, 16] was 0. For the same compound, the No hatched [2, 16] was 4, the Lethal effects k/f [2, 17] was 8 and the Lethal effects nohb [2, 17] was 2. The “No Surviving” value [2, 17] was 0, the No hatched [2, 17] was 4 and the Lethal effects k/f [2, 18] was 25. For the same compound, the “No Surviving” value [2, 18] was 0, the LC10 ([2]; mortality after 48 h of exposure) was 306 and the LC10 ([2]; mortality after 72 h of exposure) was 14.1. For the same compound, the Slope ([2]; 48 h of exposure) was 55.5, the Slope ([2]; 72 h of exposure) was 1.53 and the “No Surviving” value [2, 19] was 10. For the same compound, the No hatched [2, 19] was 8, the “Sublethal effects EdY / EdP” value [2, 19] was 6 and the “Sublethal effects Total Sublethal” value [2, 19] was 8. For the same compound, the Sublethal effects mch [2, 19] was 2, the Sublethal effects tip [2, 19] was 8 and the “No Surviving” value [2, 20] was 9. For the same compound, the No hatched [2, 20] was 8, the “Sublethal effects Total Sublethal” value [2, 20] was 8 and the Sublethal effects mch [2, 20] was 5. For the same compound, the Sublethal effects nomov [2, 20] was 5, the Sublethal effects tip [2, 20] was 8 and the “No Surviving” value [2, 21] was 8. The “Sublethal effects Total Sublethal” value [2, 21] was 9, the “Sublethal effects Ydef” value [2, 21] was 1 and the Sublethal effects mch [2, 21] was 6. For the same compound, the Sublethal effects nobc [2, 21] was 9, the Sublethal effects nomov [2, 21] was 9 and the Sublethal effects tip [2, 21] was 9. For the same compound, the “No Surviving” value [2, 22] was 10, the No hatched [2, 22] was 4 and the “Sublethal effects EdY / EdP” value [2, 22] was 4. The “Sublethal effects Total Sublethal” value [2, 22] was 4, the Sublethal effects mch [2, 22] was 2 and the Sublethal effects nobc [2, 22] was 4. For the same compound, the Sublethal effects nomov [2, 22] was 4, the Sublethal effects tip [2, 22] was 4 and the Lethal effects k/f [2, 23] was 1. The Lethal effects nohb [2, 23] was 9, the “No Surviving” value [2, 23] was 0 and the No hatched [2, 23] was 4. The “Log D (pH 7.4)” value [3] was 2.6.
